Active and inactive are the calls of the source.
What was measured:
[1] = target: Photoreceptor-specific nuclear receptor (Homo sapiens, UniProt Q9Y5X4); type: functional, cell-based;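 further: CHO-S cells with Gal4-NCOR and VP16-NR2E3 two-hybrid luciferase reporter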
[2] = target: T1, Probable nicotinate-nucleotide adenylyltransferase (Staphylococcus aureus (strain N315), UniProt P65502); type: functional, Staphylococcus aureus subsp. aureus N315;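 on IC50 Mean: confirmatory dose-response retesting of NadD inhibitor hits first found in an ultra-high-throughput screen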
T1 sequence (P65502 whole entry): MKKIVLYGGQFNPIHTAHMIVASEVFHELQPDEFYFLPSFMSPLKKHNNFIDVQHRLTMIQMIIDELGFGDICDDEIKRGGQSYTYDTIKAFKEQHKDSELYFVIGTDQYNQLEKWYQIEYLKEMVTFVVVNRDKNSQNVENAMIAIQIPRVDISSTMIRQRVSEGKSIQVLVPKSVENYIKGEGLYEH

[3] = target: T1, Probable nicotinate-nucleotide adenylyltransferase; type: functional, Staphylococcus aureus subsp. aureus N315; conditions: read-out: IC50_Mean
[4] = target: T2, Low molecular weight phosphotyrosine protein phosphatase (Homo sapiens, UniProt P24666); type: functional; conditions: read-out: IC50_Mean
T2 sequence (P24666 whole entry): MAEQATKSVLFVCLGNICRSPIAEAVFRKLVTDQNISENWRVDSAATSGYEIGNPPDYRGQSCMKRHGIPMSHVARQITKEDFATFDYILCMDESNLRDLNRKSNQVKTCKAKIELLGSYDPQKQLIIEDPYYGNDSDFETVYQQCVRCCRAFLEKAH

[5] = target: T3, Voltage-gated N-type calcium channel alpha-1B subunit/Amyloid beta A4 precursor protein-binding family A member 1 (Homo sapiens, UniProt Q00975+Q02410); type: protein assay
T3 sequence (Q00975 whole entry): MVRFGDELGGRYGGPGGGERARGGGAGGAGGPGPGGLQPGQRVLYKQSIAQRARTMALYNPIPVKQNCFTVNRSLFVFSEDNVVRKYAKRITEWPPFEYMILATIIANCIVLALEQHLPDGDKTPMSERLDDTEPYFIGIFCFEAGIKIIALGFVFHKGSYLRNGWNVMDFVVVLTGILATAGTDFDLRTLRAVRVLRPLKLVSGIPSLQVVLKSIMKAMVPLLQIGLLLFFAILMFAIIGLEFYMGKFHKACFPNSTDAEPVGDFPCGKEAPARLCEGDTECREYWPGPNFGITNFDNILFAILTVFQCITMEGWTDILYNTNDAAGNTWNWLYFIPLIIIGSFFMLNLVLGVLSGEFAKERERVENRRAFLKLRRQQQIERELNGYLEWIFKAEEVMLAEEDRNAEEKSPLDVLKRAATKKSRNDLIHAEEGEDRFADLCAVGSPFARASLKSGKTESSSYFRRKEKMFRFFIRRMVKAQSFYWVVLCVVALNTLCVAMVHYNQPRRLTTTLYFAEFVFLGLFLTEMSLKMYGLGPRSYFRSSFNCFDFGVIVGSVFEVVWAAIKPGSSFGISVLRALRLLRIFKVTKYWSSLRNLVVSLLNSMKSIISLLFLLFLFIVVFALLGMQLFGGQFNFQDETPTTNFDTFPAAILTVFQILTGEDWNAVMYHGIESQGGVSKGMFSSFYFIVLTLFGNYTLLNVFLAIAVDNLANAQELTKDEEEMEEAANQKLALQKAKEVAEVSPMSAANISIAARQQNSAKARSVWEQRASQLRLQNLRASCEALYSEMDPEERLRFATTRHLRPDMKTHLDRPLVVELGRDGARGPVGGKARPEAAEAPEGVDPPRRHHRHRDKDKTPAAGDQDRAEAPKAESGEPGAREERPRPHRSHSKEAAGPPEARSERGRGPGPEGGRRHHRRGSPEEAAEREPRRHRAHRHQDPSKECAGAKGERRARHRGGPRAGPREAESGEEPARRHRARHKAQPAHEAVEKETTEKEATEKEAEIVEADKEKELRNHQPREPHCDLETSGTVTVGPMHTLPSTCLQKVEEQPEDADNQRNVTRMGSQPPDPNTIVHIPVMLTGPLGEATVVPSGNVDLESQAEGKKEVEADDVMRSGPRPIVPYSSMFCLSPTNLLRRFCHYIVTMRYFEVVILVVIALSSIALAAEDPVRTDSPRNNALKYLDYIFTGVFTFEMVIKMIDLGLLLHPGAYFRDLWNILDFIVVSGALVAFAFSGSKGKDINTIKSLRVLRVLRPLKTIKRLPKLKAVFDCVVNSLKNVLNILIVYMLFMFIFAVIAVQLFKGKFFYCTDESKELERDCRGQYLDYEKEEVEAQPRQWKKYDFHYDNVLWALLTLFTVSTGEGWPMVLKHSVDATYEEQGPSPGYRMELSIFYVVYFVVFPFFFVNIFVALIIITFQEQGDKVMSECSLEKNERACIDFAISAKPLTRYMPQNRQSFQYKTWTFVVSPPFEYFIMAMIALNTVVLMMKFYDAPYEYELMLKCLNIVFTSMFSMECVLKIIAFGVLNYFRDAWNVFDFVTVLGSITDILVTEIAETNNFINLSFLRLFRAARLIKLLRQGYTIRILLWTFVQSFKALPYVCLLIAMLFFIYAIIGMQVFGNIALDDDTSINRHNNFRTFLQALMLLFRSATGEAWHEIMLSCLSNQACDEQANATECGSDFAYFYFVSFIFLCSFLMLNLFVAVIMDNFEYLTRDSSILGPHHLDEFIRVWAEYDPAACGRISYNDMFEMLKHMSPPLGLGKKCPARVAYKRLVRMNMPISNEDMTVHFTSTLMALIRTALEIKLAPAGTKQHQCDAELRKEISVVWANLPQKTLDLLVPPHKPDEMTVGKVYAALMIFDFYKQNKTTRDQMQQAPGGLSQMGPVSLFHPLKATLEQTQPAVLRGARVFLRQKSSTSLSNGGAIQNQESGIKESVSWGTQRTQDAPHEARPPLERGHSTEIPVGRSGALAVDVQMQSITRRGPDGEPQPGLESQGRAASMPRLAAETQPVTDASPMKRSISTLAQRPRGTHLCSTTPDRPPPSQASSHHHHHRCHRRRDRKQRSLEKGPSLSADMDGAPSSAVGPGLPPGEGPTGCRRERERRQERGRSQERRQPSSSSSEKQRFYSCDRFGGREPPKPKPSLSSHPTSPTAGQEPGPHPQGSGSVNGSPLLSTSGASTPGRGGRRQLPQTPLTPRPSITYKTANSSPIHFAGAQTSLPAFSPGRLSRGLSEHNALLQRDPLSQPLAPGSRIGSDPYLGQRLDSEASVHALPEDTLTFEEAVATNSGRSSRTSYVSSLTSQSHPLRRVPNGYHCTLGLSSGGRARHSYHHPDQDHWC
T3 sequence (Q02410 whole entry): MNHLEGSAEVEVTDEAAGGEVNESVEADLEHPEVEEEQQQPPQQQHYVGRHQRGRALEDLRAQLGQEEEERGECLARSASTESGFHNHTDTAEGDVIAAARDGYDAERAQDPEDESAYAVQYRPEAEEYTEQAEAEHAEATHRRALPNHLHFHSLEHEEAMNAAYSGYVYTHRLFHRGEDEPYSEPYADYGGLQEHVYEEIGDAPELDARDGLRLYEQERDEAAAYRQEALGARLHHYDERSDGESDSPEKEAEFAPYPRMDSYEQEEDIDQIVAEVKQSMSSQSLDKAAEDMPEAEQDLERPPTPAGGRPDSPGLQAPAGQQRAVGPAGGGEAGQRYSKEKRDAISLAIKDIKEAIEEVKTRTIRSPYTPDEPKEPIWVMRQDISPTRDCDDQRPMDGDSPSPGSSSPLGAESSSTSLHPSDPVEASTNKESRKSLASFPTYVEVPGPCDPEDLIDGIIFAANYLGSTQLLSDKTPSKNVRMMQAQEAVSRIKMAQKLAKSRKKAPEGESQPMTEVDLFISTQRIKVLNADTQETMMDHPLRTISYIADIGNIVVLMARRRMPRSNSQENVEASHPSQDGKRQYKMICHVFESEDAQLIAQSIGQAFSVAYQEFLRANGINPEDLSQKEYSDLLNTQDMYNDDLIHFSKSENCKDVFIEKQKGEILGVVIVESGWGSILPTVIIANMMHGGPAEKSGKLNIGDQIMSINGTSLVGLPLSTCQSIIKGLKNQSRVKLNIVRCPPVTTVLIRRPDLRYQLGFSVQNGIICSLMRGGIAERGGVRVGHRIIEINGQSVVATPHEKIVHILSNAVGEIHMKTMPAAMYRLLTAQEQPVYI

[6] = target: T3, Voltage-gated N-type calcium channel alpha-1B subunit/Amyloid beta A4 precursor protein-binding family A member 1; type: protein assay; remark: listed apart in the source
[7] = target: T4, Carboxy-terminal domain RNA polymerase II polypeptide A small phosphatase 1 (Homo sapiens, UniProt Q9GZU7); assay: CTDSP1 inhibitors, concentration-response, biochemical, absorbance readout, ultra-high-throughput screen actives (AID 540297); type: functional
T4 sequence (Q9GZU7 whole entry): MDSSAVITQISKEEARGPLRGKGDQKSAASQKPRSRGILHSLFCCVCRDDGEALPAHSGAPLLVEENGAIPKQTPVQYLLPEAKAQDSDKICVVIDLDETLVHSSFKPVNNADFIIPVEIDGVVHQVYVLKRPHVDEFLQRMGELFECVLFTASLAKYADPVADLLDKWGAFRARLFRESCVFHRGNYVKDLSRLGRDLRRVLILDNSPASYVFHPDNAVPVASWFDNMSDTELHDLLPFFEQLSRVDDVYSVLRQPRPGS

[8] = tested on: HEK293; assay: EBV LMP1 TES2 canonical NF-kB signalling blockers – cell-based, HEK293, luciferase, cherry-pick, dose response (AID 588343); type: functional; conditions: Homo sapiens
[9] = target: Fructose-bisphosphate aldolase (Mycobacterium tuberculosis, UniProt P9WQA3); assay: Fluorescence-based biochemical high throughput dose response assay for inhibitors of the fructose-bisphosphate aldolase (FBA) of M. tuberculosis.; type: functional
Fructose-bisphosphate aldolase, sequence (P9WQA3 whole entry): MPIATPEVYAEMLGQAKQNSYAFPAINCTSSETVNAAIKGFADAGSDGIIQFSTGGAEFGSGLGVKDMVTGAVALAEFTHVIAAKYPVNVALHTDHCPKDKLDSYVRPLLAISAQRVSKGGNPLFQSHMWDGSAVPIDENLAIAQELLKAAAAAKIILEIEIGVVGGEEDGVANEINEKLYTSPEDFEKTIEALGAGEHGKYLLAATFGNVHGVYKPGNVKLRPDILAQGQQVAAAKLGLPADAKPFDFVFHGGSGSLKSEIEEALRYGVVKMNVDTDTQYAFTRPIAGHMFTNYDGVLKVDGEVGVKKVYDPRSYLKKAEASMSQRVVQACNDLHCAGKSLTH

[10] = target: T5, Rac GTPase-activating protein 1 (Homo sapiens, UniProt Q9H0H5); assay: blockers of MgcRacGAP-driven Rac1 GTP hydrolysis – biochemical, ADP Hunter fluorescence, primary and confirmatory, confirmation (AID 624330); type: functional
T5 sequence (Q9H0H5 whole entry): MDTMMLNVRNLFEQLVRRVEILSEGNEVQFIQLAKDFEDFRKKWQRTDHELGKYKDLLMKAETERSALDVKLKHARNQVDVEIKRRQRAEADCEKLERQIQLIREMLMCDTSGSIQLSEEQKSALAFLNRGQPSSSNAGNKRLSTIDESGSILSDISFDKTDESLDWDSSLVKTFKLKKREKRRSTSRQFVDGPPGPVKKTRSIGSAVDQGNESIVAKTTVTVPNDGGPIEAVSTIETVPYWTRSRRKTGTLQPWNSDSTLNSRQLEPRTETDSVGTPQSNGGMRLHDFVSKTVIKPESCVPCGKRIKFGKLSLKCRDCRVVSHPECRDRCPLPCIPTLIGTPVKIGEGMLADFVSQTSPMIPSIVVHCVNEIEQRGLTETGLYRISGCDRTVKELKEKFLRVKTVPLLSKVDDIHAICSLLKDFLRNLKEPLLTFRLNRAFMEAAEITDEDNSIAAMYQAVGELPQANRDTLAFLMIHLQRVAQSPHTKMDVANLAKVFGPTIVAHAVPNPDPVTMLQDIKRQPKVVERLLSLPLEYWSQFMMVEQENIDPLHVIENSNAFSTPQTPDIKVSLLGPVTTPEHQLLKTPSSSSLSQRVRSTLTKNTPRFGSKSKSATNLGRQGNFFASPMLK

[11] = Fluorescence-based cell-based high throughput dose response assay for inhibitors of the interaction of nucleotide-binding oligomerization domain containing 2 (NOD2) and the receptor-interacting serine-threonine kinase 2 (RIPK2).; type: functional; conditions: Homo sapiens
[12] = viability loss in HeLa cells – cytotoxicity control for MgcRacGAP inhibitor project, dose response (AID 624300); type: functional
[13] = target: T6, Short transient receptor potential channel 4 (Mus musculus, UniProt Q9QUQ5); assay: block of DAMGO-driven TRPC4 calcium entry – cell-based, HEK293 TRPC4/mu-opioid, Fluo-4 calcium, dose response (AID 434942); type: functional;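 further: potency of inhibitors blocking the TRPC4 calcium response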
T6 sequence (Q9QUQ5 whole entry): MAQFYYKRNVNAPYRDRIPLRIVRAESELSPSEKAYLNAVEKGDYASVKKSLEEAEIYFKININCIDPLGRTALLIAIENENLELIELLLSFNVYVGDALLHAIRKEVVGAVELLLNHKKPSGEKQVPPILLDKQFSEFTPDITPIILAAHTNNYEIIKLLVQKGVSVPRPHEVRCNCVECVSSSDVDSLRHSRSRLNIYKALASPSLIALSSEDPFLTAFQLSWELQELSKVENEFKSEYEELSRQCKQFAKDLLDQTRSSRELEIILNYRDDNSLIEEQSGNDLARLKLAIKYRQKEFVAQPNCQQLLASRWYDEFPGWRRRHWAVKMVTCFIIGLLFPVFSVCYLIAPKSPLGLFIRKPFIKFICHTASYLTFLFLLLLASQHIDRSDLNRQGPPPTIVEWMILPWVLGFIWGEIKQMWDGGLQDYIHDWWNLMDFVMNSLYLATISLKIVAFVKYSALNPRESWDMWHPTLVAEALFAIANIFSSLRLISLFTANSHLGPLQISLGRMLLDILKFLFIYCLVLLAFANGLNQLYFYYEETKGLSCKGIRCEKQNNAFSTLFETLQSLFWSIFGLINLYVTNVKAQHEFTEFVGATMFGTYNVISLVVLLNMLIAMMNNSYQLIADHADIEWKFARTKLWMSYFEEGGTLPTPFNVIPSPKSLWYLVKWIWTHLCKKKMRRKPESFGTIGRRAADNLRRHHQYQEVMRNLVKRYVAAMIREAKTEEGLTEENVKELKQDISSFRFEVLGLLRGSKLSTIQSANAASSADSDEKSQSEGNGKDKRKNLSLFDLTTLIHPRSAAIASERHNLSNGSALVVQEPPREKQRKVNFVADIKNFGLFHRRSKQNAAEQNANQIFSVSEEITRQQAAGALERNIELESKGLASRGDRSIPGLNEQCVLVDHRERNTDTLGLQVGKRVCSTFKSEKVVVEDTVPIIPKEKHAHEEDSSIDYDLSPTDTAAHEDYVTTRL

[14] = target: T7, COUP transcription factor 2 (Homo sapiens, UniProt P24468); assay: Luminescence-based cell-based high throughput dose response assay to identify inhibitors of COUP-TFII (NR2F2).; type: functional;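 further: HEK293 cells transiently cotransfected with COUP-TFII expression vector and reporter; luciferase reporter luminescence driven by COUP-TFII from the pX2-168 reporter plasmid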
T7 sequence (P24468 whole entry): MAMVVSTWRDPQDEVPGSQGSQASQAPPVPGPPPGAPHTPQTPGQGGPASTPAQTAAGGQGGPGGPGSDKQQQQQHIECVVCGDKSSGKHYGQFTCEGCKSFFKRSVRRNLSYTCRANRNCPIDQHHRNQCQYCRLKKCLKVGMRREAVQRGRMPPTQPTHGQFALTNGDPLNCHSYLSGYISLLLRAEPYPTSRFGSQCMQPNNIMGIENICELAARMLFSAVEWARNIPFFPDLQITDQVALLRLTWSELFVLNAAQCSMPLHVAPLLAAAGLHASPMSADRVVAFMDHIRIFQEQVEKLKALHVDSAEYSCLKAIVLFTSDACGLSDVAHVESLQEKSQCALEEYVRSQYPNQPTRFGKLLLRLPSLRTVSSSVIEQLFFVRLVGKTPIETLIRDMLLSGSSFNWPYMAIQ

[15] = target: T8, Galanin receptor type 3 (Homo sapiens, UniProt O60755); assay: Fluorescence-based cell-based primary high throughput dose response assay to identify antagonists of the Galanin Receptor 3 (GalR3).; type: functional
T8 sequence (O60755 whole entry): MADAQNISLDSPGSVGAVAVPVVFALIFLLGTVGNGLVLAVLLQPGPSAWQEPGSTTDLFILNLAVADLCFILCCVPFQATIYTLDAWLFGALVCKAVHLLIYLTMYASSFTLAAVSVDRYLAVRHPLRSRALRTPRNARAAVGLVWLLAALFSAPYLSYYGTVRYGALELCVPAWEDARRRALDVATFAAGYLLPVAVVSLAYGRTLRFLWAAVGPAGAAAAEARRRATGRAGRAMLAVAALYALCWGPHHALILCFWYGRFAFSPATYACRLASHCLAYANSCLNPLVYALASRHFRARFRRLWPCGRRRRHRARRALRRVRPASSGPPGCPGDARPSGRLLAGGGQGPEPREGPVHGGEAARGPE

[16] = target: Protein Wnt-3a (Mus musculus, UniProt P27467); assay: antagonism of Wnt3a pathway luciferase reporter – Wnt-LIGHT cells, luminescence, selectivity assay for Gli-SUFU antagonist project, dose response (AID 651570); type: functional; conditions: read-out: IC50_Mean;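 further: Wnt-LIGHT reporter cells stimulated with conditioned medium from Wnt3a-producing cells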
[17] = cells; type: functional, cell-based; conditions: HEK-CNG
[18] = tested on: INS1; assay: INS-1E survival protection against cytokine death – cell-based, luminescence, retest, dose response (AID 449756); type: functional; conditions: Rattus norvegicus;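 further: cell death triggered by IL-1 beta plus TNF-alpha plus IFN-gamma mixture; protective hits raise ATP signal compared with cytokine alone wells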
[19] = bead-based luminescence quenchers, dual-tagged ARNT – biochemical, AlphaScreen, cherry-pick, artefact control for ARNT-TACC3 interaction inhibitor project, dose response (AID 651705); type: functional;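 further: AlphaScreen bead proximity signal that flags compounds interfering with the detection technology; potency reflects signal decrease which marks the compound as an assay artifact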
[20] = tested on: H9c2; assay: cells; type: functional, cell-based; conditions: Rattus norvegicus, H9c2, Myocardium;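 further: confirmatory concentration-response retest of ultra-high-throughput screening hits for modulation of myocardial damage; cell death induced by hydrogen peroxide oxidative stress; compound pretreatment for 60 min then peroxide exposure for 2 h; potency is for protecting the cells against peroxide damage rather than for killing them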
[21] = target: Induced myeloid leukemia cell differentiation protein Mcl-1 (Homo sapiens, UniProt Q07820); type: functional
[22] = fluconazole-exposed Candida albicans growth modulators – fluorescence, retest, confirmation (AID 2467); type: functional, cell-based
[23] = Trypanosoma cruzi growth suppression in host cells – NIH3T3 host cells, beta-gal luminescence, confirmation (AID 2044); type: functional, cell-based;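 further: intracellular parasites grown in NIH/3T3 mouse fibroblasts as host cells; luminescent beta-galactosidase reporter signal from transgenic T. cruzi replicating inside host cells; inhibitors lower the luminescence signal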
[24] = cells; type: functional, cell-based
[25] = tested on: HEK293; assay: cells; conditions: Homo sapiens
[26] = tested on: HEK293; assay: cells; conditions: Homo sapiens; remark: listed apart in the source
[27] = NIH-3T3 fibroblast cytotoxicity, dose response, cytotoxicity control, cell-based, fluorescence, Alamar Blue, secondary assay (AID 2327); type: functional;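 further: NIH-3T3 mouse fibroblasts cultured with fluconazole at 8 µg/mL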
[28] = NIH3T3 cell viability loss – ATP luminescence, mouse fibroblasts, counter-screen, dose response (AID 2010); type: functional, cell-based;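 further: cells exposed to compound for about 90 hours before reading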
[29] = target: T9, Nuclear receptor subfamily 0 group B member 1 (Homo sapiens, UniProt P51843); type: functional, cell-based;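 further: HEK293T cells transfected with SF-1 and DAX-1 plus StAR promoter luciferase reporter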
T9 sequence (P51843 whole entry): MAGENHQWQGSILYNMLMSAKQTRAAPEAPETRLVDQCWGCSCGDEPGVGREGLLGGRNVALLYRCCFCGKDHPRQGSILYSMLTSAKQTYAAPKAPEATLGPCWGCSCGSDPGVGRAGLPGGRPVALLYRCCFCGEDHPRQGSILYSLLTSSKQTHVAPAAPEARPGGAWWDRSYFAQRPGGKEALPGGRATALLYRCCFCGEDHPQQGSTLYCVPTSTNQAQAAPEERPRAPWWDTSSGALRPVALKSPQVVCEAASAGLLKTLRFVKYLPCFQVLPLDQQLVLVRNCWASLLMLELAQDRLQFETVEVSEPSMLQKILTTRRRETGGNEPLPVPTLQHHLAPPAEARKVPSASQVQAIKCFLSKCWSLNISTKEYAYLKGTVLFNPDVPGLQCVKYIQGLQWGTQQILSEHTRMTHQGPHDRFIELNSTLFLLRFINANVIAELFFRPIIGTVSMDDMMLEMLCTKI

[30] = target: DNA repair and recombination protein RAD54-like (Homo sapiens, UniProt Q92698); assay: RAD54 Holliday junction migration blockers – biochemical, fluorescence, cherry-picked samples, dose series, confirmation (AID 651657); type: functional
DNA repair and recombination protein RAD54-like, sequence (Q92698 whole entry): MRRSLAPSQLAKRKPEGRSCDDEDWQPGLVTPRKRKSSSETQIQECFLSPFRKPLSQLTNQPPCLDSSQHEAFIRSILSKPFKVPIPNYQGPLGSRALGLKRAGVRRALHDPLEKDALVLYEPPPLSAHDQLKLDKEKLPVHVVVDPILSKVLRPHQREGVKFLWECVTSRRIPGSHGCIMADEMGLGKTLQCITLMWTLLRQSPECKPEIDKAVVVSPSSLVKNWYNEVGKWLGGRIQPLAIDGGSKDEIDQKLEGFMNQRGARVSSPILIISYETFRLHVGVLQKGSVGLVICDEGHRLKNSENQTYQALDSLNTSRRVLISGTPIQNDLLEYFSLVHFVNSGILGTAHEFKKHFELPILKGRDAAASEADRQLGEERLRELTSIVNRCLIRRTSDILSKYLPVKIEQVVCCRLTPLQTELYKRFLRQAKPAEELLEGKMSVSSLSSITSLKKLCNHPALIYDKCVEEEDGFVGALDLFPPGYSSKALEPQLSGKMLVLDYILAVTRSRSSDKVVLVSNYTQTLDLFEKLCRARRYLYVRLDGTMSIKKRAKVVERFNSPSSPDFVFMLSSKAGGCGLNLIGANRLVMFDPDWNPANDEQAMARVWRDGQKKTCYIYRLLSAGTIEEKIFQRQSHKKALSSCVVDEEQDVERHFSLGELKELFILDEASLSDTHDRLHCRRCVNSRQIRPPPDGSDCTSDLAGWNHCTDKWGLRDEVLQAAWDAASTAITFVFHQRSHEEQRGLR

[31] = target: Dual specificity tyrosine-phosphorylation-regulated kinase 1A (Rattus norvegicus, UniProt Q63470); type: biochemical, Homo sapiens

Photoreceptor-specific nuclear receptor, sequence (Q9Y5X4 whole entry, the tested form may be a part): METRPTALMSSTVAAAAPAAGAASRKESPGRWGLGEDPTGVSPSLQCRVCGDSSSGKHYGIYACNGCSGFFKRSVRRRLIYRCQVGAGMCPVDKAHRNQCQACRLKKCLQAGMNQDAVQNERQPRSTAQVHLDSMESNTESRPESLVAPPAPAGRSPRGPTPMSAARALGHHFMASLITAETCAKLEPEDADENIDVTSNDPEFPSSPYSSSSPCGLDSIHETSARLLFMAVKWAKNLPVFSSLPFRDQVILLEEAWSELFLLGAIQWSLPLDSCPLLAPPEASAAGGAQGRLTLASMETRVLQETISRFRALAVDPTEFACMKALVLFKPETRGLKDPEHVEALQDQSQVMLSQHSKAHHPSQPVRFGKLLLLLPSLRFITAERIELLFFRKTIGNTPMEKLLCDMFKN

## CC(C)(C)c1ccc(CSc2nc(N)cc(O)n2)cc1
[1]
  IC50: 5.21 µM (active)

## Cc1ccccc1C(=O)Nc1cc[n+](-c2nc3ccccc3nc2[N-]S(=O)(=O)c2ccc(F)cc2)cc1
[2]
  IC50: 5.96 µM (active)
[3]
  IC50: 23.8 µM (active)

## COc1ccc2cc3c(N)nn(C(=O)c4cccc([N+](=O)[O-])c4)c3nc2c1
[4]
  IC50: 19.1 µM (active)
[5]
  IC50: 12.2 µM (active)
[6]
  IC50: > 50 µM (inactive)
[7]
  IC50: 4.35 µM (active)
[8]
  AC50: 3.08 µM (active)

## Cc1ccc(-n2nc3ccc(N)cc3n2)cc1C
[9]
  IC50: 0.895 µM (active)

## CN(C)CCC(=O)N1C/C(=C/c2ccccc2)C(=O)/C(=C\c2ccccc2)C1
[10]
  IC50: 167 µM (active)
[11]
  IC50: 3.78 µM (active)
[12]
  CC50: 25 µM (active)

## Cc1nc2ccccc2n1Cc1ccc(Br)cc1
[13]
  EC50: 0.668 µM (active)
[14]
  IC50: 4.4 µM (active)
[15]
  IC50: 0.14 µM (active)
[16]
  IC50: 0.369 µM (active)
[17]
  EC50: > 29.9 µM (inactive)
[18]
  AC50: 2.84 µM (active)

## O=C(NCCCn1ccnc1)C(=O)NCC1OCCN1S(=O)(=O)c1ccc2c(c1)OCCO2 (stereo not drawn)
[19]
  AC50: 89.6 µM (active)

## CSCC[C@H](NC(=O)OC(C)(C)C)C(=O)N/N=C/c1cccc2cccnc12
[19]
  AC50: 132 µM (active)
[20]
  IC50: > 79 µM (inactive)

## Cn1c(/C=N/n2cnnc2)nc2ccccc21
[9]
  IC50: 1.54 µM (active)

## C/C(=N\NC(=O)c1cccc(N/N=C(\C)c2ccco2)c1)c1ccco1
[2]
  IC50: 10.6 µM (active)
[7]
  IC50: 3.17 µM (active)
[3]
  IC50: 14.8 µM (active)
[21]
  IC50: 3.19 µM (active)

## COc1cc2c(O)c3c(c(-c4ccc5c(c4)OCO5)c2cc1OC)C(=O)OC3 [DIPHYLLIN]
[22]
  EC50: 2.59 µM (active)
[23]
  EC50: 1.65 µM (active)
[24]
  IC50: > 67.6 µM (inactive)
[25]
  EC50: > 59.7 µM (inactive)
[1]
  IC50: 0.962 µM (active)
[26]
  EC50: > 59.7 µM (inactive)
[27]
  EC50: 33.5 µM (active)
[28]
  EC50: > 30 µM (not active)
[29]
  IC50: > 67.6 µM (inactive)

## Cc1[nH]ccc2c1[nH]c1cc(=O)ccc12 [HARMOL]
[10]
  IC50: 44.9 µM (active)
[30]
  AC50: 23.9 µM (active)
[31]
  AC50: 0.298 µM (active)
